Measurements: paper PMC8294803, “A Roadmap to the Structure-Related Metabolism Pathways of Per- and Polyfluoroalkyl Substances in the Early Life Stages of Zebrafish (Danio rerio)” (Environmental Health Perspectives, 2021)
Values joined by “and” are separate entries in the source; they are usually repeats but may differ in a detail not shown here. Equal values may be shown once. “Also recorded” adds a separate entry of the source. Read-outs that look alike come from different tables or passages of the source.

Columns and labels:
zebrafish larvae [1] = assay: Nontargeted analysis of PFAS metabolites in zebrafish larvae (high-resolution MS); details: for Profile of metabolites (%): Alcohol / Peak intensity: Alcohol (parent FTOH): zebrafish larvae; for Profile of metabolites (%): Alcohol: Figure 5B; for Peak intensity: Alcohol (parent FTOH): single replicates, Figure 5A; for Metabolites / hydrolysis products in zebrafish larvae: in vivo, nontargeted analysis
Method: (§1) Zebrafish embryos were collected immediately after spawning, within 1 h, and subsequently transferred to 24-well plates with 1mL of facility water ( 0.036g sea salt, 0.15g sodium bicarbonate in 2L of reverse osmosis water). […] Three well replicates on the same plate were conducted for each concentration of individual chemical. […] Seven batches of experiments were performed to test all 74 PFAS. DMSO controls were incorporated in each batch of exposure experiments. Three replicates were performed for each treatment group, and 20 embryos were used for each replicate. […] For daily replenishment, 2.5mL of old exposure medium were replaced with freshly prepared medium every 24 h from 24 to 96 h post fertilization (hpf). Hatched or dead embryo numbers were recorded every 24 hpf, after which dead embryos were discarded from the growth media. Dead embryos or unhatched embryos were not used for PFAS measurement because the metabolism of PFAS might have been impacted. Zebrafish larvae collection occurred at 120 hpf. First, the larvae were anesthetized by cooling the plate in ice water (0–4°C) for ∼20 min . Then 8–15 larvae in each well were transferred into 1.5-mL tubes. Exposure media was carefully removed, and then the larvae were weighed (wet weight) after blotting excess water with a paper towel. […] Samples were stored at −80 °C until further chemical analysis was performed. Survival rate and hatching rate were calculated by summarizing all the documented data from the whole treatment duration. […] The exposure experiment of PFOSA was repeated using the same procedure as described above.
(§2) Each sample was spiked with 2μL of 0.2μg/mL mass-labeled PFAS mixture. Following this, 500μL of dichloromethane/methanol (2:1, vol/vol) was added to each sample for PFAS extraction. Larvae were then homogenized via ultrasonic probe, followed by 30 min of shaking and 30 min of sonication. Each sample was centrifuged at 14,000×g for 5 min, after which the supernatant was transferred to new tubes. Extraction was repeated once and the two supernatants were combined, evaporated under nitrogen flow, and reconstituted in 200μL of methanol for MS analysis.
(§3) Three microliters of each zebrafish extract was applied to a C18 column ( 1.5μm; 2.1mm×50mm; Thermo Scientific) and analyzed using a Vanquish ultra-HPLC system (Thermo Fisher Scientific) coupled to a Q Exactive high-resolution mass spectrometer (Thermo Fisher Scientific). The sampler and column compartments were maintained at 4°C and 40°C, respectively. The aqueous mobile phase solution (A) consisted of water, whereas the organic mobile phase solution (B) consisted of acetonitrile. […] MS data was acquired in full scan mode (100–1000 m/z, 70,000 mass resolution, 3×10^6 maximum ions collected per 100 ms), and tandem MS (MS/MS) data was recorded by all-ion fragmentation (AIF) mode. Negative and positive ion modes were carried out simultaneously at a 10-min method duration. […] An overview of the analyses conducted on the various PFAS is available in Table S2.
Nontargeted data analysis was accomplished with R scripts that are available on Github (https://github.com/huiUofT/PFASmetabolite). […] The peak features were matched across samples with a mass tolerance of 2.5 ppm and a RT window of 20 s, after RT adjustment. The ratio of abundances of each feature in treatment groups relative to the control group (DMSO) was calculated. The p -values of the difference between two groups were determined by student’s t -tests.

zebrafish embryos = details: for pericardial oedemata, Mean / spinal curvature, Mean / tail dysplasia, Mean: 5μM through 120 hpf, malformation rate; for Mortality (%): 5 µM, exposure through 120 hpf; for Lethal effects on zebrafish larvae: 5μM, 5 d
zebrafish larvae [2] = assay: Bioconcentration factors (BCF) of PFAS in zebrafish larvae; details: zebrafish larvae; for BCF: exposure concentration not given; for BCF 0.5µM: 0.5 µM exposure; for BCF 0.5µM / BCF 5µM: 120 hpf, three replicates; for BCF 5µM: 5 µM exposure
Method: as §1, §2, §3
GraphPad Prism (version 7.0.4; GraphPad Software) and R studio (version 1.1.456; R Studio Inc.) software was used, and an ANOVA with Dunnett tests was employed to evaluate the statistical significance of the percentage hatched and mortality rate. Exponential regressions were used to determine the relationships between bioconcentration factor (BCF) and binding affinities ( Kd ) to L-FABP.

[3] = target: T1, recombinant human liver carboxylesterase 1 (hCES1) (Homo sapiens, UniProt P23141); assay: Hydrolysis of PFAS by recombinant hCES1; type: in vitro ADME; details: for Parent PFAS, hCES1 (%) / Parent PFAS, Control (%): 10 μM PFAS, single replicates; for Parent PFAS, hCES1 (%): 100 μg/L hCES1, phosphate buffer 37 °C 1 hour, axis %Control; for Parent PFAS, Control (%): without hCES1, phosphate buffer 37 °C 1 hour; for Concentration of hydrolysis product: from 10μM of parent, 100μg/L hCES1, 37°C; for concentration of corresponding hydrolysis product detected from parent PFAS, hCES1 / concentration of corresponding hydrolysis product detected from parent PFAS, Control: 10 µM parent PFAS, three replicates; for concentration of corresponding hydrolysis product detected from parent PFAS, hCES1: incubated with hCES1; for concentration of corresponding hydrolysis product detected from parent PFAS, Control: vehicle control group without hCES1
T1 construct: purchased Sigma Aldrich
T1 sequence (P23141 18-567): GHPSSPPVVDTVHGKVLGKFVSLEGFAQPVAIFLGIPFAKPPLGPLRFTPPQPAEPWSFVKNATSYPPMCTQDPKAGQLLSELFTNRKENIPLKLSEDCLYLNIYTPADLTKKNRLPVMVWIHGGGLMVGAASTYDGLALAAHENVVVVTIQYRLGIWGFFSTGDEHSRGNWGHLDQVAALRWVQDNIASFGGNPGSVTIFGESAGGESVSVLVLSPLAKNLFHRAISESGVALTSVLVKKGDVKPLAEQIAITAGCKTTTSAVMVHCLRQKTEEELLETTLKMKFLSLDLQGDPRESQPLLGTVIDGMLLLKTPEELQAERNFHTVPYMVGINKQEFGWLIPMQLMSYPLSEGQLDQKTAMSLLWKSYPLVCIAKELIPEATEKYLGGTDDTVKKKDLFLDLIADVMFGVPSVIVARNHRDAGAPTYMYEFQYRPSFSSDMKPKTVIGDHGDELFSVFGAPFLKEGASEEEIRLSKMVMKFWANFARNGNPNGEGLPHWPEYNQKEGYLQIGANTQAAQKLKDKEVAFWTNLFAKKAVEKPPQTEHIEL
Method: Because recombinant zebrafish CES is not available, we decided to use hCES1 to evaluate the structure-related hydrolysis of PFAS. […] In vitro enzymatic activity experiments were carried out for 1 h in 1.5-mL tubes with 100μL phosphate buffer ( 137 mM sodium chloride, 10 mM phosphate buffer, 2.7 mM potassium chloride; pH 7.4) at 37°C with shaking. Reaction mixtures contained different concentrations of PFAS (1, 10, and 50μM ) and 100μg/L hCES1. […] To stop the hydrolysis reaction, four times the volume of ice-cold methanol was added. The hCES1 protein was precipitated out by centrifugation ( 14,000×g , 10 min). The supernatant was transferred to a new tube and analyzed via MS for the analysis of parent compounds and suspected metabolites (i.e., carboxylates).

[4] = system: liver fatty acid binding protein (L-FABP); set-up: method as in Yang et al. 2020; details: ref Yang et al. 2020, cited from earlier work

Compound | Profile of metabolites (%): Alcohol (zebrafish larvae [1]) [%] | Peak intensity: Alcohol (parent FTOH) (zebrafish larvae [1]) | pericardial oedemata, Mean (zebrafish embryos) [%] | spinal curvature, Mean (zebrafish embryos) [%] | tail dysplasia, Mean (zebrafish embryos) [%] | Mortality (%) (zebrafish embryos) | BCF (zebrafish larvae [2]) [L/kg] | Parent PFAS, hCES1 (%) [3] | Parent PFAS, Control (%) [3] | Concentration of hydrolysis product [3] | Metabolites / hydrolysis products in zebrafish larvae (zebrafish larvae [1]) | concentration of corresponding hydrolysis product detected from parent PFAS, hCES1 [3] [µM] | concentration of corresponding hydrolysis product detected from parent PFAS, Control [3] [µM] | L-FABP ligand [4] | BCF 0.5µM (zebrafish larvae [2]) | BCF 5µM (zebrafish larvae [2]) [L/kg] | Lethal effects on zebrafish larvae (zebrafish embryos) | BCF at 0.5μM compared with 5μM (zebrafish larvae [2]) | Kd ([4]; read-out: Kd (μM), L-FABP binding affinity) [µM] | Lethal effects on zebrafish larvae (zebrafish embryos; listed as PFOSA)
OCC(F)(F)C(F)(F)C(F)(F)C(F)(F)C(F)(F)C(F)F [compound 67, Dodecafluoroheptanol] | 0.00 | 0 | 1.11 | 0.00 | 0.00 | 0 |  |  |  |  |  |  |  |  |  |  |  |  |  | 
NC(=O)C(F)(F)C(F)(F)C(F)(F)C(F)(F)C(N)=O [compound 58, Octafluoroadipamide] |  |  | 1.11 | 1.11 | 0.00 | 6.7 | < 10 | 97.41% and 90.44% and 135.26% | 83.59% and 76.79% and 139.62% | not detected | metabolites were not detected; also recorded: no metabolite was detected |  |  |  |  |  |  |  |  | 
COC(=O)C(F)(F)C(F)(F)C(F)(F)C(F)(F)C(F)(F)F [compound 36, Methyl perfluorohexanoate] |  |  | 1.11 | 0.00 | 0.00 | 4.4 |  |  |  | not detected | metabolites were not detected |  |  |  |  |  |  |  |  | 
2,2-Difluoroethyl triflate [compound 13] |  |  | 2.22 | 0.00 | 1.11 | 2.2 |  |  |  | not detected | metabolites were not detected | 0.00 | 0.00 |  |  |  |  |  |  | 
CNS(=O)(=O)C(F)(F)C(F)(F)C(F)(F)C(F)(F)C(F)(F)C(F)(F)C(F)(F)C(F)(F)F [compound 16, N-Methylperfluorooctanesulfonamide] |  |  | 0.00 | 0.00 | 0.00 |  |  | 89.36% and 92.00% and 92.59% | 93.34% and 78.46% and 128.20% |  |  |  |  | not identified as L-FABP ligands | 292.232 L/kg | 89 ± 9.4 | strongest lethal effects |  |  | 
NC(=O)C(F)(F)C(F)(F)C(F)(F)F [compound 31, Heptafluorobutyramide] |  |  | 0.00 | 0.00 | 0.00 | 2.2 | < 10 | 88.80% and 125.28% and 71.56% | 98.24% and 100.70% and 101.05% |  | high abundances of metabolized carboxylates were detected |  |  |  |  |  |  |  |  | 
2-(Trifluoromethoxy)ethyl trifluoromethanesulfonate [compound 10] |  |  | 2.22 | 1.11 | 0.00 | 0 |  |  |  | not detected | metabolites were not detected | 0.00 | 0.00 |  |  |  |  |  |  | 
OCC(F)(F)OC(F)(F)C(F)(F)OC(F)(F)CO [compound 32, 1H,1H,8H,8H-Perfluoro-3,6-dioxaoctane-1,8-diol] | 48.26 | 13344387 and 7489514 and 11717785 | 1.11 | 0.00 | 1.11 | 3.3 |  |  |  |  |  |  |  |  | 5.939 L/kg | 8.4 ± 1.1 |  | comparable or even higher BCFs at 5μM |  | 
NS(=O)(=O)C(F)(F)C(F)(F)C(F)(F)C(F)(F)C(F)(F)C(F)(F)C(F)(F)C(F)(F)F [compound 60, Perfluorooctanesulfonamide] |  |  | 0.00 | 0.00 | 0.00 | 100 |  | 83.48% and 89.94% and 97.43% | 81.21% and 101.71% and 117.08% |  |  |  |  |  | 501 ± 19 L/kg and 501.032 L/kg |  | strongest lethal effects |  | 5.87 | no zebrafish larvae from the 5-μM group survived; also recorded: All zebrafish larvae were dead
C=C(C)C(=O)OCCC(F)(F)C(F)(F)C(F)(F)C(F)(F)C(F)(F)C(F)(F)F [compound 2, 6:2 Fluorotelomer methacrylate] |  |  | 3.33 | 1.11 | 4.44 | 0 |  |  |  |  | hydrolysis products (i.e., sulfated 6:2 FTOH) were also detected |  |  |  |  |  |  |  |  | 
COC(=O)C(F)(F)C(F)(F)C(F)(F)F [compound 47, Methyl heptafluorobutyrate] |  |  | 2.22 | 1.11 | 0.00 | 0 |  |  |  | not detected | metabolites were not detected |  |  |  |  |  |  |  |  | 
OCCC(F)(F)C(F)(F)C(F)(F)C(F)(F)C(F)(F)C(F)(F)F [compound 70, 6:2 Fluorotelomer alcohol] | 0.00 | 0 | 0.00 | 0.00 | 0.00 | 0 |  |  |  |  |  |  |  |  |  |  |  |  |  | 
